Source: patent US10562912B2 (C&C Research Laboratories, priority 2013, dated 2020)

How the values were obtained:
Assay type in all cases: cell-based
[1] = tested on: DU-145; assay: Cell growth inhibition assay, prostate cancer cell line DU-145; conditions: Homo sapiens, DU-145 prostate cancer cell line
Procedure: (§1) The inhibitory effects of the compounds of the present invention against the growth of cancer cells were evaluated as shown below. The cancer cell lines including stomach cancer cell line (AGS), breast cancer cell lines (MDA-MB-231, MDA-MB-468, and BT-549), prostate cancer cell lines (LNCaP and DU-145), colon cancer cell line (HCT116), ovarian cancer cell line (SW626), liver cancer cell line (Hep3B), kidney cancer cell line (ACHN), lung cancer cell line (NCI-H23) and blood cancer cell lines (HEL92.1.7 and U266) were cultured under the protocol provided by each supplier. A medium supplemented with 10 ng/mL of IL-6 was used for LNCaP, a prostate cancer cell line, when treated with a drug. Each type of cells to be used in experiments were sub-cultured in a 96-well plate by counting the exact number of cells using Tali™ Image-based Cytometer (Life Technologies). In a 96-well plate, AGS, HCT116, and DU-145 were employed with 3,000 cells/well; NCI-H23, SW626, Hep3B, ACHN, BT-549, MDA-MB-231, HEL92.1.7, and U266 were employed with 5,000 cells/well; and LNCaP and MDA-MB-468 were employed with 10,000 cells/well. The cells were treated with the compounds listed in Examples which were diluted in various concentrations. Upon completion of the compounds treatment, AGS, HCT116, SW626, DU145, NCI-H23, Hep3B, ACHN, BT-549, LNCaP, HEL92.1.7, and U266 cells were cultured at 37° C. under 5% CO2 for from 72 to 96 hours, and MDA-MB-231 and MDA-MB-468 cells were cultured at 37° C. in air for from 72 to 96 hours. Subsequently, the cells were observed under microscope and drug precipitation and particular findings were investigated and recorded. And then, the 96-well plate was placed at room temperature for 30 minutes, added with 20 μL/well of CellTiter-Glo solution (Cat No. G7573, Promega) and shaken for 10 minutes, followed by being subjected to the measurement using PHERAstar™ microplate reader (BMG LABTECH) according to the supplier's general luminometer protocol. Wells where only culture liquid added without cell plating were used as a negative control, whereas wells where culture liquid containing 0.1% DMSO instead of the compounds listed in Examples were used as a positive control.

[2] = target: T1, STAT3 (Homo sapiens, UniProt P40763); assay: STAT3 reporter gene assay (luciferase), LNCaP stable cell line (pSTAT3-TA-luc), IL-6 stimulation
T1 construct: plasmid pSTAT3-TA-luc), which contains a stably operating STAT3 promoter; endogenous in cells
T1 sequence (P40763 whole entry): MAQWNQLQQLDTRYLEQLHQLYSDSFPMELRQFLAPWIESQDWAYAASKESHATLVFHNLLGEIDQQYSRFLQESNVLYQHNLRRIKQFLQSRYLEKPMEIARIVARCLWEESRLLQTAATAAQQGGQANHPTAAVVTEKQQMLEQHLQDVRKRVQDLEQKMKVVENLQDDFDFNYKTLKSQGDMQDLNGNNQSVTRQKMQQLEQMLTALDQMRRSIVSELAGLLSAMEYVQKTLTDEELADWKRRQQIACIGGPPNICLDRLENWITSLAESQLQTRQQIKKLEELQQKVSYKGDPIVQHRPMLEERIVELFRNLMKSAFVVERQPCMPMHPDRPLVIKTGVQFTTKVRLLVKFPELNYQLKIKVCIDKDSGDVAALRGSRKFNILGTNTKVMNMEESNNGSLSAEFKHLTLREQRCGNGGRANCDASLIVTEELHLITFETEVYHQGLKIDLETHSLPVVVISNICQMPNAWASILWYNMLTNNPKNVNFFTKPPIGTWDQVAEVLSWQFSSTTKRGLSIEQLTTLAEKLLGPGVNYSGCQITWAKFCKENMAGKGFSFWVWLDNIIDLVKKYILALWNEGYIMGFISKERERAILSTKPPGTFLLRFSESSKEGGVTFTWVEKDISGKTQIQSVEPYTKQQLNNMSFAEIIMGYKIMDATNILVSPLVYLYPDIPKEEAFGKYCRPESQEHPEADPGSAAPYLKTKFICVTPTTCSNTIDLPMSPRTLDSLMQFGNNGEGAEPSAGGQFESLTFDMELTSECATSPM
Procedure: 1-1) Experiment on the Inhibition of STAT3 Activity
A human prostate cancer cell line (LNCaP stable cell line; plasmid pSTAT3-TA-luc), which contains a stably operating STAT3 promoter, was cultured in RPMI1640 medium (Cat No. 11875, Life Technologies) containing 10% fetal bovine serum (FBS) (Cat No. SH30396, Thermo Scientific) and 150 μg/mL G-418 solution (Cat No. 04 727 894 001, Roche). The reporter gene assay using LNCaP stable cell line was performed in RPMI1640 medium containing 3% DCC-FBS without G-418 solution. LNCaP stable cells were plated in two (2) white 96-well plates with 30,000 cells/50 μL in each well. The cells were cultured at 37° C., under 5% CO2 for 24 hours, and then treated with the compounds listed in Examples which were diluted in various concentrations. Subsequently, IL-6 was added to each well with a final concentration of 10 ng/mL. Upon completion of the treatment with the compounds and IL-6, the cells were cultured at 37° C., under 5% CO2 for from 24 to 48 hours. The plates were observed under microscope and drug precipitation and particular findings were investigated and recorded.
The luciferase assay and the cell viability assay were performed respectively with one of the two plates. For the luciferase assay, the liquid media in the 96-well plate was removed, and then, 20 μL of passive cell lysis buffer was added to each well. After shaking the plate for 30 minutes, luciferase activities of each well were measured in a PHERAstar™ microplate reader (BMG LABTECH) using a luciferase assay system (Cat No. E1501, Promega). For the cell viability assay, the 96-well plate was placed at room temperature for 30 minutes, added with 20 μL/well of CellTiter-Glo solution (Cat No. G7573, Promega), and shaken for 10 minutes in order to measure cytotoxicity caused by the compounds listed in Examples with a PHERAstar™ microplate reader (BMG LABTECH). Wells without 0.1% DMSO and stimulation were used as a negative control and wells with 0.1% DMSO and stimulation were used as a positive control.

[3] = tested on: LNCaP; assay: Cell growth inhibition assay, prostate cancer cell line LNCaP (medium with 10 ng/mL IL-6); conditions: Homo sapiens, medium supplemented with 10 ng/mL of IL-6, 10,000 cells/well
Procedure: as §1

IC50 [1] [µM] | IC50 [2] [µM] | IC50 [3] [µM] | SMILES
0.048 | 0.12 | 0.063 | CS(=O)(=O)Nc1ccc2sc(C(=O)Nc3cc(Cl)cc(Oc4ccc(C(F)(F)F)cc4)c3)cc2c1 [Example 465, N-(3-chloro-5-(4-(trifluoromethyl)phenoxy)phenyl)-5-(methylsulfonamido)benzo[b]thiophene-2-carboxamide]
0.04 | 0.042 | 0.35 | CC(C)(c1ccc(Cl)cc1)c1cc(Cl)cc(NC(=O)c2cc3cc(Cl)c(NS(C)(=O)=O)cc3s2)c1 [Example 184, 5-chloro-N-(3-chloro-5-(2-(4-chlorophenyl)propan-2-yl)phenyl)-6-(methylsulfonamido)benzo[b]thiophene-2-carboxamide]
0.3 | 0.14 | 0.85 | CC(C)Oc1cc(CN2CCN(c3nnc(C(C)C)o3)CC2)cc(C(C)(C)c2cc(Cl)cc(NC(=O)c3cc4cc(NS(C)(=O)=O)ccc4s3)c2)c1 [Example 135, N-(3-chloro-5-(2-(3-isopropoxy-5-((4-(5-isopropyl-1,3,4-oxadiazol-2-yl)piperazin-1-yl)methyl)phenyl)propan-2-yl)phenyl)-5-(methylsulfonamido)benzo[b]thiophene-2-carboxamide]
0.024 | 0.025 | 0.042 | Cc1ccc(C(C)(C)c2cc(Cl)cc(NC(=O)c3cc4cc(NS(C)(=O)=O)ccc4s3)c2)s1 [Example 178, N-(3-chloro-5-(2-(5-methylthiophen-2-yl)propan-2-yl)phenyl)-5-(methylsulfonamido)benzo[b]thiophene-2-carboxamide]
0.004 | 0.016 | 0.015 | CS(=O)(=O)Nc1cc2cc(C(=O)Nc3cc(Cl)cc(-c4ccc(F)cc4F)c3)sc2cc1Cl [Example 333, 6-chloro-N-(5-chloro-2′,4′-difluoro-[1,1′-biphenyl]-3-yl)-5-(methylsulfonamido)benzo[b]thiophene-2-carboxamide]
0.41 | 0.35 | 0.97 | CC(C)Oc1cc(CN2CCS(=O)(=O)CC2)cc(C(C)(C)c2cc(Cl)cc(NC(=O)c3cc4cc(NS(C)(=O)=O)ccc4s3)c2)c1 [Example 132, N-(3-chloro-5-(2-(3-((1,1-dioxidothiomorpholino)methyl)-5-isopropoxyphenyl)propan-2-yl)phenyl)-5-(methylsulfonamido)benzo[b]thiophene-2-carboxamide]
0.038 | 0.074 | 0.071 | CC(C)(c1ccsc1)c1cc(Cl)cc(NC(=O)c2cc3cc(NS(C)(=O)=O)ccc3s2)c1 [Example 171, N-(3-chloro-5-(2-(thiophen-3-yl)propan-2-yl)phenyl)-5-(methylsulfonamido)benzo[b]thiophene-2-carboxamide]
0.06 | 0.1 | 0.099 | CS(=O)(=O)Nc1ccc2sc(C(=O)Nc3cc(Cl)cc(Oc4cccc(OC(F)(F)F)c4)c3)cc2c1 [Example 450, N-(3-chloro-5-(3-(trifluoromethoxy)phenoxy)phenyl)-5-(methylsulfonamido)benzo[b]thiophene-2-carboxamide]
0.16 | 0.17 | 0.31 | CS(=O)(=O)Nc1ccc2sc(C(=O)Nc3cc(Cl)cc(Oc4cc(Cl)cc(Cl)c4)c3)cc2c1 [Example 464, N-(3-chloro-5-(3,5-dichlorophenoxy)phenyl)-5-(methylsulfonamido)benzo[b]thiophene-2-carboxamide]
0.16 | 0.27 | 0.84 | CC(C)Oc1cc(CN2CCC3(CC2)COC3)cc(C(C)(C)c2cc(Cl)cc(NC(=O)c3cc4cc(NS(C)(=O)=O)ccc4s3)c2)c1 [Example 134, N-(3-(2-(3-((2-oxa-7-azaspiro[3,5]nonan-7-yl)methyl)-5-isopropoxyphenyl)propan-2-yl)-5-chlorophenyl)-5-(methylsulfonamido)benzo[b]thiophene-2-carboxamide]
0.58 | 0.224 | 0.42 | CC(C)Oc1cc(OC(F)(F)F)cc(C(C)(C)c2cc(Cl)cc(NC(=O)c3cc4c(s3)CCN(NS(C)(=O)=O)C4)c2)c1 [Example 104, N-(3-chloro-5-(2-(3-isopropoxy-5-(trifluoromethoxy)phenyl)propan-2-yl)phenyl)-5-(methylsulfonamido)-4,5,6,7-tetrahydrothieno[3,2-c]pyridine-2-carboxamide]
> 1.1 | > 10 | > 1.1 | CS(=O)(=O)Nc1cc2cc(C(=O)Nc3cc(Cl)cc(Oc4cc(O)cc(Cl)c4)c3)sc2cc1Cl [Example 475, 6-chloro-N-(3-chloro-5-(3-chloro-5-hydroxyphenoxy)phenyl)-5-(methylsulfonamido)benzo[b]thiophene-2-carboxamide]
0.13 | 0.13 | 0.33 | CS(=O)(=O)Nc1ccc2sc(C(=O)Nc3cc(Cl)cc(Oc4ccc(Cl)cc4Cl)c3)cc2c1 [Example 462, N-(3-chloro-5-(2,4-dichlorophenoxy)phenyl)-5-(methylsulfonamido)benzo[b]thiophene-2-carboxamide]
0.007 | 0.019 | 0.01 | CS(=O)(=O)Nc1cc2cc(C(=O)Nc3cc(Cl)cc(Oc4ccc(OC(F)(F)F)cc4)c3)sc2cc1Cl [Example 480, 6-chloro-N-(3-chloro-5-(4-(trifluoromethoxy)phenoxy)phenyl)-5-(methylsulfonamido)benzo[b]thiophene-2-carboxamide]
0.38 | 0.129 | > 1.1 | CS(=O)(=O)Nc1cc2sc(C(=O)Nc3cc(Cl)cc(Oc4ccc(Cl)cc4)c3)cc2cc1Cl [Example 485, 5-chloro-N-(3-chloro-5-(4-chlorophenoxy)phenyl)-6-(methylsulfonamido)benzo[b]thiophene-2-carboxamide]
0.009 | 0.017 | 0.038 | C=CCOc1cc(OC(F)(F)F)cc(C(C)(C)c2cc(Cl)cc(NC(=O)c3cc4cc(NS(C)(=O)=O)ccc4s3)c2)c1 [Example 78, N-(3-(2-(3-(allyloxy)-5-(trifluoromethoxy)phenyl)propan-2-yl)-5-chlorophenyl)-5-(methylsulfonamido)benzo[b]thiophene-2-carboxamide]
0.018 | 0.022 | 0.35 | CS(=O)(=O)Nc1cc2cc(C(=O)Nc3cc(Cl)cc(Oc4ccc(Cl)cc4)c3)sc2cc1Br [Example 453, 6-bromo-N-(3-chloro-5-(4-chlorophenoxy)phenyl)-5-(methylsulfonamido)benzo[b]thiophene-2-carboxamide]
0.17 | 0.063 | 0.37 | CCOc1cc(OC(F)(F)F)cc(C(C)(C)c2cc(Br)cc(NC(=O)c3cc4nc(NS(C)(=O)=O)ccc4s3)c2)c1 [Example 60, N-(3-bromo-5-(2-(3-ethoxy-5-(trifluoromethoxy)phenyl)propan-2-yl)phenyl)-5-(methylsulfonamido)thieno[3,2-b]pyridine-2-carboxamide]
